Converted amounts (≈) assume the structure as drawn. “And” between values parts separate entries of the source, which are not always exact repeats. Equal values may be shown once. Read-outs that look alike come from different tables or passages of the source. Residues, ends and D or L forms follow the SMILES beside them.
Tests used:
[1] = tested on: Pseudomonas aeruginosa (PA01); settings: previously shown (Oh et al. 2014), listed as [W4R4]; cited from earlier work
[2] = tested on: Escherichia coli (ATCC 25922); settings: ATCC 25922
[3] = tested on: Escherichia coli (ATCC 25922); type: cell-based
In short: (§1)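 MIC was taken as the lowest concentration inhibiting growth, judged by visual or spectrophotometric turbidity. MBC was the lowest concentration reducing viability of the initial inoculum by ≥99.9%. Strains were clinically reported multi-drug-resistant isolates.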

[4] = tested on: Methicillin-resistant Staphylococcus aureus MRSA (ATCC BAA-1556); type: cell-based
In short: as §1

[5] = tested on: Pseudomonas aeruginosa (ATCC 27883); type: cell-based; settings: Table 22
In short: as §1

[6] = tested on: Klebsiella pneumoniae (ATCC BAA-1705); type: cell-based
In short: as §1

[7] = tested on: Methicillin-Resistant Staphylococcus aureus (MRSA); settings: cited from earlier work
E. coli [8] = settings: cited from earlier work
[9] = tested on: Pseudomonas aeruginosa (ATCC 27883); settings: ATCC 27883
MRSA [10] = assay: In vivo Galleria Mellonella Assay (MRSA infection); settings: MRSA-infected G. mellonella, after one week
[11] = tested on: Methicillin-resistant Staphylococcus aureus MRSA (ATCC BAA-1556); settings: ATCC BAA-1556
[12] = tested on: Klebsiella pneumoniae (ATCC BAA-1705); settings: ATCC BAA-1705
[13] = tested on: Methicillin-Resistant Staphylococcus aureus (MRSA); settings: previously shown (Oh et al. 2014), listed as [W4R4]; cited from earlier work
[14] = tested on: Escherichia coli (E. Coli, ATCC 25922); assay: microbe, parasite or virus in culture; settings: ATCC25922, 24 h, read-out: Escherichia coli (ATCC 25922) MIC
[15] = tested on: Pseudomonas aeruginosa (ATCC 27883); assay: microbe, parasite or virus in culture
[16] = tested on: Klebsiella pneumoniae (KPC, ATCC BAA-1705); assay: microbe, parasite or virus in culture; settings: ATCCBAA1705, 24 h
[17] = tested on: Methicillin-resistant Staphylococcus aureus MRSA (ATCC BAA-1556); assay: microbe, parasite or virus in culture; settings: read-out: MIC MRSA (ATCC BAA-1556)
MRSA [18] = assay: microbe, parasite or virus in culture; settings: Staphylococcus aureus, ATCCBAA1556 / MRSA, read-out: MIC MRSA (ATCC BAA-1556)
[19] = tested on: Klebsiella pneumoniae (KPC, ATCC BAA-1705); settings: Klebsiella pneumoniae (ATCC BAA-1705); antibiotic alone
[20] = tested on: Clostridium difficile (NAP1/027); assay: MIC determination, broth microdilution (CLSI); type: cell-based
[21] = tested on: Klebsiella pneumoniae (ATCC BAA-1705); assay: microbe, parasite or virus in culture
[22] = tested on: Pseudomonas aeruginosa (PSA, ATCC 27883); settings: antibiotics alone and PHY-MIX (1:1 w/w)
KPC = settings: Table 37; peptides and peptide-capped gold nanoparticles
[23] = tested on: Escherichia coli (E. Coli, ATCC 25922); settings: antibiotics alone and PHY-MIX (1:1 w/w)
[24] = tested on: Klebsiella pneumoniae (KPC, ATCC BAA-1705); assay: microbe, parasite or virus in culture; settings: ATCCBAA1705, 24 h, read-out: MIC of antibiotic
[25] = tested on: Clostridium difficile (ATCC 700057); assay: MIC determination, broth microdilution (CLSI); type: cell-based
E. coli [26] = settings: Table 37; peptides and peptide-capped gold nanoparticles
[27] = tested on: Pseudomonas aeruginosa (PSA, ATCC 27883); assay: microbe, parasite or virus in culture; settings: ATCC27883, 24 h, read-out: Pseudomonas aeruginosa (ATCC 27883) MIC
[28] = tested on: Staphylococcus aureus ATCC 33592 (MRSA) biofilm; assay: microbe, parasite or virus in culture; settings: read-out: inhibition of biofilm formation
Description: (§2) Bacteria. The bacterial strains employed in these assays were obtained from the American Type Culture Collection (ATCC). Each strain was propagated as recommended by the ATCC and each strain was stored as a frozen glycerol stock at −80° C.
(§3) Bacterial Propagation. […] Following the incubation, the culture was diluted to an optical density 625 nm (OD625) of 0.1 in cation adjusted Mueller Hinton Broth (CAMHB), which is equivalent to 1×10^8 CFU/mL. The culture was further diluted to 1×10^6 CFU/mL which was used for the assay.
(§4) Determination of the Temporal Effects of SPL7013 Addition to Inhibit Biofilm Formation. Each strain of bacteria was adjusted to a concentration of 1×10^6 CFU/mL and added to a 96-well flat-bottomed plate in a volume of 100 mL. One-hundred microliters (100 mL) of each compound at 10 concentrations was added in triplicate wells. The cultures were incubated for 24 hours at 37° C. under the appropriate growth conditions for each organism. Following the incubation, the media was removed, and the formed biofilms were fixed for 1 hour at 60° C. Two-hundred microliters (200 mL) of 0.06% crystal violet was added to the wells for 5 to 10 minutes and the wells were then gently washed three times with deionized H2O to remove the crystal violet. Following crystal violet staining 200 mL of 70% ethanol was added to the wells.

[29] = tested on: Staphylococcus aureus ATCC 33592 (MRSA) biofilm; settings: all other concentrations ([…] to 0.001 μg/mL)
Description: as §2, §3, §4

[30] = tested on: Pseudomonas aeruginosa (PSA, ATCC 27883); assay: Synergy checkerboard assay (FIC index); type: cell-based; settings: ATCC27883, 24 h; Table 25; Pseudomonas aeruginosa (ATCC 27883); antibiotic alone
[31] = tested on: Escherichia coli (ATCC 25922); assay: microbe, parasite or virus in culture
PSA = settings: Table 37; peptides and peptide-capped gold nanoparticles

Q: For `N=C(N)NCCC[C@@H]1NC(=O)[C@H](CCCNC(=N)N)NC(=O)[C@H](CCCNC(=N)N)NC(=O)[C@H](Cc2c[nH]c3ccccc23)NC(=O)[C@H](Cc2c[nH]c3ccccc23)NC(=O)[C@H](Cc2c[nH]c3ccccc23)NC(=O)[C@H](Cc2c[nH]c3ccccc23)NC(=O)[C@H](CCCNC(=N)N)NC1=O` [[R4W4], reference compound] (cyclo(RRRRWWWW)), which MIC [1] is on record?
A: Its MIC is 42.8 μg/mL and 31.3 μM.

Q: And the “E. coli (ATCC 25922) MIC” value [2]?
A: The value was 16 µg/mL.

Q: What about the “E. coli (ATCC 25922) MBC” value [3] of the same compound?
A: The value was 32 µg/mL.

Q: What about the “MRSA (ATCC BAA-1556) MBC” value [4] of the same compound?
A: The value was 32 µg/mL.

Q: What about the “PSA (ATCC 27883) MBC” value [5] of the same compound?
A: Its value is 128 µg/mL.

Q: What about the “KPC (ATCC BAA-1705) MBC” value [6] of the same compound?
A: The value was 64 µg/mL.

Q: What about the “interaction with tetracycline in time-kill assays” value [7] of the same compound?
A: The value was “synergistically”.

Q: What about the “interaction with tetracycline in time-kill assays” value (E. coli [8]) of the same compound?
A: The value was “synergistically”.

Q: What about the “PSA (ATCC 27883 MIC)” value [9] of the same compound?
A: Its value is 64 µg/mL.

Q: What about the larvae killed (MRSA [10]) of the same compound?
A: The larvae killed was “all”.

Q: What about the “MRSA (ATCC BAA-1556) MIC” value [11] of the same compound?
A: The value was 4 µg/mL.

Q: And the “KPC (ATCC BAA-1705) MIC” value [12]?
A: Its value is 32 µg/mL.

Q: And the MIC [13]?
A: Its MIC is 2.67 μg/mL and 1.95 μM.

Q: Which MIC [14] does the source give for `CN[C@H](CC(C)C)C(=O)N[C@H]1C(=O)N[C@@H](CC(N)=O)C(=O)N[C@H]2C(=O)N[C@H]3C(=O)N[C@H](C(=O)N[C@H](C(=O)O)c4cc(O)cc(O)c4-c4cc3ccc4O)[C@H](O)c3ccc(c(Cl)c3)Oc3cc2cc(c3O[C@@H]2O[C@H](CO)[C@@H](O)[C@H](O)[C@H]2O[C@H]2C[C@](C)(N)[C@H](O)[C@H](C)O2)Oc2ccc(cc2Cl)[C@H]1O` [Vancomycin, reference compound] here?
A: The MIC was greater than 64 µg/mL.

Q: What about the MIC ([15]; ATCC27883, read-out: MIC P. aeruginosa ATCC 27883) of the same compound?
A: Its MIC is greater than 256 µg/mL.

Q: And the MIC ([15]; ATCC27883, read-out: PSA (ATCC 27883 MIC))?
A: Its MIC is greater than 512 µg/mL.

Q: What about the MIC ([16]; read-out: Klebsiella pneumoniae (ATCC BAA-1705) MIC, Table 28, IFX-031, antibiotics alone and PHY-MIX (1:1 w/w)) of the same compound?
A: Its MIC is greater than 256 µg/mL.

Q: What about the MIC ([16]; read-out: Klebsiella pneumoniae (ATCC BAA-1705) MIC, Table 29, [R6W4] (IFX-318), antibiotics alone and PHY-MIX (1:1 w/w)) of the same compound?
A: Its MIC is greater than 256 µg/mL.

Q: What about the MIC ([16]; read-out: Klebsiella pneumoniae (ATCC BAA-1705) MIC, Table 30, [R5W4K] (IFX-315), antibiotics alone and PHY-MIX (1:1 w/w)) of the same compound?
A: The MIC was greater than 256 µg/mL.

Q: And the MIC ([16]; read-out: Klebsiella pneumoniae (ATCC BAA-1705) MIC, Table 31, [R5W4] (IFX-301), antibiotics alone and PHY-MIX (1:1 w/w))?
A: The MIC was greater than 64 µg/mL.

Q: And the MIC [17]?
A: The MIC was 0.5 µg/mL (≈ 0.345 µM).

Q: What about the MIC (MRSA [18]) of the same compound?
A: Its MIC is 0.5 µg/mL (≈ 0.345 µM).

Q: What about the MIC of antibiotic [19] of the same compound?
A: Its MIC of antibiotic is greater than 256 µg/mL.

Q: What about the MIC90 [20] of the same compound?
A: Its MIC90 is 0.31 µg/mL (≈ 0.214 µM).

Q: What about the MIC95 [20] of the same compound?
A: Its MIC95 is 0.31 µg/mL (≈ 0.214 µM).

Q: What about the MIC99 [20] of the same compound?
A: The MIC99 was 0.31 µg/mL (≈ 0.214 µM).

Q: What about the MIC ([21]; ATCCBAA1705, read-out: KPC (ATCC BAA-1705) MIC) of the same compound?
A: The MIC was greater than 512 µg/mL.

Q: And the MIC ([21]; ATCCBAA1705, read-out: MIC K. pneumoniae (ATCC BAA-1705))?
A: Its MIC is greater than 256 µg/mL.

Q: What about the “Pseudomonas aeruginosa (ATCC 27883) MIC” value ([22]; Table 29, [R6W4] (IFX-318)) of the same compound?
A: Its value is greater than 64 µg/mL.

Q: What about the “Pseudomonas aeruginosa (ATCC 27883) MIC” value ([22]; Table 30, [R5W4K] (IFX-315)) of the same compound?
A: The value was greater than 64 µg/mL.

Q: And the “Pseudomonas aeruginosa (ATCC 27883) MIC” value ([22]; Table 31, [R5W4] (IFX-301))?
A: Its value is greater than 64 µg/mL.

Q: What about the “MIC Klebsiella pneumoniae (ATCC BAA-1705)” value (KPC) of the same compound?
A: Its value is “No effect”.

Q: And the “Escherichia coli (ATCC 25922) MIC” value ([23]; Table 29, [R6W4] (IFX-318))?
A: The value was greater than 64 µg/mL.

Q: And the “Escherichia coli (ATCC 25922) MIC” value ([23]; Table 30, [R5W4K] (IFX-315))?
A: Its value is greater than 64 µg/mL.

Q: What about the “Escherichia coli (ATCC 25922) MIC” value ([23]; Table 31, [R5W4] (IFX-301)) of the same compound?
A: Its value is greater than 64 µg/mL.

Q: And the MIC [24]?
A: Its MIC is greater than 256 µg/mL.

Q: What about the MIC90 [25] of the same compound?
A: The MIC90 was 0.63 µg/mL (≈ 0.435 µM).

Q: What about the MIC95 [25] of the same compound?
A: Its MIC95 is 0.63 µg/mL (≈ 0.435 µM).

Q: What about the MIC99 [25] of the same compound?
A: The MIC99 was 0.63 µg/mL (≈ 0.435 µM).

Q: And the “MIC Escherichia coli (ATCC 25922)” value (E. coli [26])?
A: Its value is “No effect”.

Q: What about the MIC [27] of the same compound?
A: The MIC was greater than 64 µg/mL.

Q: And the inhibition at 5000 µg/mL [28]?
A: Its inhibition at 5000 µg/mL is roughly 97%.

Q: And the “inhibition of biofilm formation” value [29]?
A: The value was “approximately 50%”.

Q: And the MIC [30]?
A: The MIC was greater than 256 µg/mL.

Q: What about the MIC ([31]; ATCC25922, read-out: E. coli (ATCC 25922) MIC) of the same compound?
A: The MIC was greater than 512 µg/mL.

Q: What about the MIC ([31]; ATCC25922, read-out: MIC E. coli (ATCC 25922)) of the same compound?
A: The MIC was greater than 256 µg/mL.

Q: And the “MIC Pseudomonas aeruginosa (ATCC 27883)” value (PSA)?
A: The value was “No effect”.

— US20220289794A1, “SYNTHETIC ANTIMICROBIAL PEPTIDES” (priority 2019, published 2022)
